Data taken from patent US5539127A, “7-substituted oxa- or azasteroid compound” (Teikoku Hormone Mfg. Co., Ltd., priority 1992, dated 1996).
pIC50: −log10 of the molar value. Counter-ions that a name gives are not always drawn.

Experiments:
aromatase [1] = experiment: Assay of aromatase-inhibiting action (in vivo), inhibition of DHEAS-induced cornification of vaginal smear; parameters: species or system rat; details: for Inhibition rate (cornification-inhibiting action against cornification in the solvent administration group): mature female rats after enucleation of the pituitary gland, 2 mg/kg test compound orally with 16 mg/kg DHEAS once a day, 4 days, smears of day 3 to 5
Method: (2) Assay of aromatase-inhibiting action (in vivo)
Aromatase-inhibiting action was assayed according to the method developed by G. H. Deckers and A. H. W. M. Schuurs (Journal of Steroid Biochemistry,32, 625-631, (1989)).
Namely, groups of mature female rats at one week after enucleation of the pituitary gland were used, each group consisting of 8 to 10 animals. 16 mg/kg of dehydroepiandrosterone sulfate (DHEAS) and 5 ml/kg of a solvent (physiological saline containing 2% polysorbate 80), or DHEAS and 2 mg/kg of a test compound suspended in the solvent were orally administered to each rat once a day for the succeeding 4 days. For 6 days starting from the next day of the first administration, vaginal smear was sampled and observed by a microscope after being stained with Giemsa staining solution. Cornification of the vaginal smear with DHEAS was observed from 3 days after the first administration, and its action disappeared 6 days thereafter. Therefore, the cornification smear number was assumed to be the total of 3 days from the third day to fifth day after the initiation of administration. A cornification-inhibiting action with a test compound was expressed as the rate against cornification in the solvent administration group.
In this connection, the cornification of vaginal smear is caused by estrogens biosynthesized from DHEAS by aromatase, and therefore, when aromatase is inhibited, inhibition of cornification is observed.

aromatase [2] = biological target: T1, aromatase (Homo sapiens, UniProt P11511); experiment: Assay of aromatase-inhibiting action (in vitro), human placental microsome, 3H2O release from [1,2-3H]androstenedione; assay type: biochemical; details: 2 μM [1,2-3H]androstenedione, 180 μM NADPH, pH 7.5, 37° C., 20 minutes
T1 construct: 150 μg of freeze dried human placental microsome; from tissue; host or cells: human placenta, microsomes
T1 sequence (P11511 1-503): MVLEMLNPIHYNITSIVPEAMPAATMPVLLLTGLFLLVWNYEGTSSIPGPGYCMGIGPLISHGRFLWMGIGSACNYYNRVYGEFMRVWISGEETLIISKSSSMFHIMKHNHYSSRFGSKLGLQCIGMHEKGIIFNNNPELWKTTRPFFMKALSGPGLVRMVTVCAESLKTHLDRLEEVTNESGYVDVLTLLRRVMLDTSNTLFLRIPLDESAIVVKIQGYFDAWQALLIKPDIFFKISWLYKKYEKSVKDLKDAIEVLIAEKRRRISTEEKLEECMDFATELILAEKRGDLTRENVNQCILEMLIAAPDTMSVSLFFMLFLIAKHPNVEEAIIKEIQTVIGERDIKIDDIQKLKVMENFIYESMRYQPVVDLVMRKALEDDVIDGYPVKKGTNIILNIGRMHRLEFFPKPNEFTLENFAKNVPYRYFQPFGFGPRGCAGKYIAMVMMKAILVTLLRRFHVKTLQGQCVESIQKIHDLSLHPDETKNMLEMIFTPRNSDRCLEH
Method: (1) Assay of aromatase-inhibiting action (in vitro)
Human placental microsome (centrifuged at 105,000×g for 60 minutes) was prepared, according to the method of Ryan (The Journal of Biological Chemistry, 234, 268-272, (1959)). The microsome was used after it was washed twice with 0.5 mM dithiothreitol solution, freeze dried, and stored at -20° C.
The aromatase-inhibiting action was assayed according to the method developed by Tompson and Siiteri (Journal of Biological Chemistry, 249, 5373-5378, (1974)). Namely, the method comprises quantitatively determining ^3 H2 O released through aromatization of [1,2-^3 H]androstenedione. The experiment using the enzyme was performed in 67 mM phosphate buffer (pH 7.5) so that the final amount of the incubation solution could be 0.5 ml. The incubation solution contained 180 μM of NADPH, 2μM of [1,2-^3 H]androstenedione, 150 μg of freeze dried human placental microsome, 25 μl of methanol and a test compound in various concentrations. Incubation was performed in the air at 37° C. for 20 minutes, the reaction was terminated with addition of 3 ml of chloroform, and the mixture was stirred for 40 seconds. The mixture was centrifuged at 700×g for 10 minutes, 0.3 ml of the aqueous solution was taken from the supernatant, the scintillation mixture was added, and the amount of ^3 H2 O formed was measured.

[3] = 16 mg/kg DHEAS orally, once a day, rats

Compound: C[C@]12CC[C@H](OS(=O)(=O)O)CC1=CC[C@@H]1[C@@H]2CC[C@]2(C)C(=O)CC[C@@H]12 [DHEAS, dehydroepiandrosterone sulfate, reference compound]
- Cornification of the vaginal smear with DHEAS observed from (days after the first administration) (aromatase [1]; [3]): 3 days
- disappearance of the cornification action of DHEAS (days thereafter) (aromatase [1]; [3]): 6 days

Compound: C[C@]12CCC(=O)C=C1C[C@@H](Sc1ccc(N)cc1)[C@@H]1[C@@H]2CC[C@]2(C)C(=O)OCC[C@@H]12 [Example 1, 7α-[(4-aminophenyl)thio]-D-homo-17-oxaandrost-4-ene-3,17a-dione]
- pIC50 (aromatase [2]): 5.64

Compound: C[C@]12CC[C@H]3[C@@H]([C@H](S)CC4=CC(=O)C=C[C@@]43C)[C@@H]1CCOC2 [Example 8, 7α-mercapto-D-homo-17-oxaandrosta-1,4-dien-3-one]
- pIC50 (aromatase [2]): 6.40
- Inhibition rate (cornification-inhibiting action against cornification in the solvent administration group) (aromatase [1]): 68.2 ± 13.6%

Compound: CC(=O)S[C@H]1CC(=O)C=C2C[C@@H](SC(C)=O)[C@@H]3[C@H](CC[C@]4(C)C(=O)OCC[C@@H]34)[C@]21C [Example 43, 1α,7α-bis(acetylthio)-D-homo-17-oxaandrost-4-ene-3,17a-dione]
- Inhibition rate (cornification-inhibiting action against cornification in the solvent administration group) (aromatase [1]): 70.6 ± 15.6%

Compound: C[C@]12C=CC(=O)C=C1C[C@@H](S)[C@@H]1[C@@H]2CC[C@]2(C)C(=O)OCC[C@@H]12 [Example 16, 7α-mercapto-D-homo-17-oxaandrosta-1,4-diene-3,17a-dione]
- pIC50 (aromatase [2]): 6.30
- Inhibition rate (cornification-inhibiting action against cornification in the solvent administration group) (aromatase [1]): 70.6 ± 15.6%
